Data from patent publication US20250346582A1, “SPLEEN TYROSINE KINASE INHIBITORS AND METHODS OF USE THEREOF” (THE BOARD OF TRUSTEES OF THE UNIVERSITY OF ILLINOIS, priority 2022, published 2025).
Read-outs that look alike come from different tables or passages of the source.

Columns and labels:
Syk-cSH2 = biological target: T1, Syk-cSH2 (Homo sapiens, UniProt P43405); experiment: Fluorescence quenching vesicle binding assay, Syk-cSH2
T1 construct: polyhistidine (N); made in house; host or cells: Escherichia coli BL21 (DE3) pLysS
Experimental: (§1) The membrane-binding assay is based on fluorescence quenching of EGFP fused to a SH2 domain by a dark quencher containing lipid, dabsyl-PE, incorporated in lipid vesicles. The plate reader assay was performed using the Synergy™ Neo spectrofluorometer at 25° C. Nontreated black polystyrene 96-well plates (Corning) were used. Protein (10-50 nM) with the increasing concentration of vesicles with a given lipid composition in 20 mM Tris buffer, pH 7.4, containing 0.16 M NaCl was added to each row of wells and the EGFP fluorescence emission at 516 nm was measured with excitation set at 485 nm. Z′ factor for the assay system was determined as described^74. Imax and IC50 values of inhibitors were determined using the equation, I=Imax/(1+IC50/[I]) where I and [I] indicate % inhibition and inhibitor concentration, respectively. The average and standard deviation values were obtained from triplicate determinations.
(§2) We also optimized a recently developed fluorescence quenching-based lipid-binding assay^47 for high-throughput screening of these molecules for their inhibitory activity against the PIP3-SH2 interaction. Specifically, we expressed SH2 domains as EGFP-tagged proteins and directly quantified their membrane binding by monitoring the quenching of EGFP fluorescence emission intensity by a dark quencher-containing lipid, N-dimethylaminoazo-benzenesulfonyl-phosphatidylethanolamine (dabsyl-PE), incorporated in the vesicles. We then screened for compounds that inhibited binding of Syk-cSH2, BLNK-SH2, and PLCγ2-cSH2, respectively, to 1-palmitoyl-2-oleoyl-PC (POPC)/1-palmitoyl-2-oleoyl-PS (POPS)/PIP3/dabsyl-PE (67:20:3:10) vesicles while eliminating those that inhibit their non-specific binding to anionic POPC/POPS/dabsyl-PE (70:20:10) vesicles. The quality of the screening system was evaluated using 1% dimethylsulfoxide (DMSO) and 20 μM D-myo-inositol-1,3,4,5-tetraphosphate (IP4) as negative and positive controls, respectively. The clear separation of positive and negative control data and the average Z′-factor of 0.7 supported the robustness of our system for high-throughput screen of PIP3-SH2 interaction inhibitors.

BLNK-SH2 = biological target: T2, BLNK-SH2 (Homo sapiens, UniProt Q8WV28); experiment: Fluorescence quenching vesicle binding assay, BLNK-SH2; settings: Table 2, BLNK-SH2 binding to POPC/POPS/PIP3/dabsyl-PE vesicles; for Emax: read-out: Imax (%)
T2 construct: All SH2 domain constructs were cloned into the pRSET-B vector; polyhistidine (N); made in house; host or cells: Escherichia coli BL21 (DE3) pLysS
T2 sequence (Q8WV28 346-453 limits assumed): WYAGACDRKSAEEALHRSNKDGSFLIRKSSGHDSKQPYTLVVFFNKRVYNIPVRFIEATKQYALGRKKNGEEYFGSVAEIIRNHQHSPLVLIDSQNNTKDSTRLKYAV
Experimental: as §1, §2

PLCγ2-cSH2 = biological target: T3, PLCγ2-cSH2 (Homo sapiens, UniProt P16885); experiment: Fluorescence quenching vesicle binding assay, PLCγ2-cSH2; settings: Table 2, PLCγ2-cSH2 binding to POPC/POPS/PIP3/dabsyl-PE vesicles; for Emax: read-out: Imax (%)
T3 construct: polyhistidine (N); made in house; host or cells: Escherichia coli BL21 (DE3) pLysS
T3 sequence (P16885 646-735 limits assumed): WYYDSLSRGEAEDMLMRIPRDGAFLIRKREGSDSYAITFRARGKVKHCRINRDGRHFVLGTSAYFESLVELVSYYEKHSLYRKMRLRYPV
Experimental: as §1, §2

[1] = test system: BCR signaling axis (Syk-BLNK-PLCγ2); experiment: Western blot of BCR signaling axis in Raji B lymphocytes; format: cell-based; settings: Raji B cells
Experimental: Cells were seeded at a density of 3.0×10^5 cells/well prior to incubation with inhibitors. Cells were incubated with 1-5 μM of Syk inhibitors overnight and stimulated with different antibodies: IgG2 for AML cells, IgM for Raji B cells, and OKT3 (Biolegend) for Jurkat cells. The cells were lysed in NP40 lysis buffer (50 mM Tris, pH 7.5, 150 mM NaCl, 1 mM EDTA, 1% NP40, 10% glycerol, 10 mM NaF, 10 mM Na3VO4, and the protease inhibitor cocktail) at 4° C. and the cell debris was removed by centrifugation. Samples were analyzed by SDS-PAGE. Proteins were separated and transferred to Immobilon-P polyvinylidene difluoride membrane (Millipore Sigma). The membrane was blocked with 5% bovine serum albumin for 1 h and incubated overnight at 4° C. with various antibodies (1:1000 dilution for all antibodies). After the unbound antibodies were removed by washing with 0.1% Tris buffer saline with 0.1% Tween20, the membranes were incubated with the horseradish peroxidase secondary antibody (1:5000 dilution) for 1 h at room temperature. The membranes were washed three more times with 0.1% Tris buffer saline with 0.1% Tween20 to remove the unbound horseradish peroxidase secondary antibody before imaging. The chemiluminescence intensity of protein bands in the gel was analyzed and documented by the Azure 500Q Imaging System.

[2] = Table 2, Syk-cSH2 binding to POPC/POPS/PIP3/dabsyl-PE vesicles
[3] = Table 3, efficacy determined by the vesicle binding assay
[4] = Table 3, efficacy determined by the vesicle binding assay, read-out: IC50

| SMILES | Imax (%) (Syk-cSH2; [3]) | IC50 (Syk-cSH2; [4]) [µM] | other results |
| --- | --- | --- | --- |
| CCOC(=O)NC(C(=O)OCC)c1cccc(Cl)n1 (stereo not shown) [VG370] |  |  | Imax (%) (Syk-cSH2; [2]): <10%; Emax (BLNK-SH2): < 20%; IC50 (PLCγ2-cSH2): 0.68 ± 0.05 µM; Emax (PLCγ2-cSH2): 40 to 50%; effect on phosphorylation of BCR signaling proteins (Syk, BLNK, PLCγ2) [1]: selectively suppressed phosphorylation of PLCγ2 |
| OCCc1c(Cl)cncc1I [VG594] |  |  | Imax (%) (Syk-cSH2; [2]): <10%; IC50 (BLNK-SH2): 0.4 ± 0.03 µM; Emax (BLNK-SH2): 40 to 50%; Emax (PLCγ2-cSH2): < 10%; effect on phosphorylation of BCR signaling proteins (Syk, BLNK, PLCγ2) [1]: blocked the phosphorylation of BLNK and PLCγ2 without a significant effect on Syk phosphorylation |
| [N-]=[N+]=C(C(=O)OC1CCCCC1)C(Nc1ncccn1)c1cccs1 (stereo not shown) [WC-37] | Imax (%) = 15 | 2.8 |  |
| COc1cc(OC)cc(C(Nc2ncccn2)C(=[N+]=[N-])C(=O)OC2CCCCC2)c1 (stereo not shown) [WC-45] | Imax (%) = 12 | 3.6 |  |
| [N-]=[N+]=C(C(=O)OC1CCCCC1)C(Nc1ncccn1)c1ccccc1 (stereo not shown) [WC-46] | Imax (%) = 10 | 5 |  |
| [N-]=[N+]=C(C(=O)OC1CCCCC1)C(Nc1ccccn1)c1ccc(O)c(Br)c1 (stereo not shown) [WC-52] | Imax (%) = 12 | 3.5 |  |
| [N-]=[N+]=C(C(=O)OC1CCCCC1)C(Nc1ccccn1)c1ccc(Br)cc1 (stereo not shown) [WC-62] | Imax (%) ≤ 10 | 5 |  |
| [N-]=[N+]=C(C(=O)OC1CCCCC1)C(Nc1ncccn1)c1c(F)c(F)c(F)c(F)c1F (stereo not shown) [WC-70] | Imax (%) ≤ 10 | 2.5 |  |
| Cc1ccc(C(Nc2cnccn2)C(=[N+]=[N-])C(=O)OC2CCCCC2)cc1 (stereo not shown) [WC-73] | Imax (%) ≤ 10 | 8 |  |
| CCOP(=O)(OCC)C(=[N+]=[N-])C(Nc1ccccn1)c1ccc(C)cc1 (stereo not shown) [WC-75] | Imax (%) = 12 |  | IC50 (Syk-cSH2): 7 µM |
| Cc1ccc(C(CC(=O)OC2CCCCC2)Nc2ncccn2)cc1 (stereo not shown) [WC-79] | Imax (%) ≤ 10 | 10 |  |
| Cc1ccc(/C(=C/C(=O)OC2CCCCC2)Nc2cnccn2)cc1 [WC-80] | Imax (%) = > 10 | 15 |  |
| CCOP(=O)(/C=C(\Nc1ccccn1)c1ccc(C)cc1)OCC [WC-85] | Imax (%) ≤ 10 |  | IC50 (Syk-cSH2): 12 µM |
| CCOC(=O)/C=C(\NS(=O)(=O)c1ccccc1)c1ccc(C)cc1 [WC-90] | Imax (%) ≤ 10 | 20 |  |
| Cc1ccc(C(Nc2ncc(C)s2)C(=[N+]=[N-])C(=O)OC2CCCCC2)cc1 (stereo not shown) [WC-92] | Imax (%) = 15 | 10 |  |
| Cc1ccc(C(Nc2cc(C)ccn2)C(=[N+]=[N-])C(=O)OC2CCCCC2)cc1 (stereo not shown) [WC-95] | Imax (%) ≤ 10 | 5 |  |
| CCOC(=O)C(=[N+]=[N-])C(Nc1ccccn1)c1ccccc1 (stereo not shown) [WC-110] | Imax (%) ≤ 10 | 5 |  |
| CCOC(=O)C(=[N+]=[N-])C(Nc1ccccn1)c1ccc(O)cc1 (stereo not shown) [WC-111] | Imax (%) ≤ 10 | 7 |  |
| [N-]=[N+]=C(C(=O)OC1CCCC1)C(Nc1ccccn1)c1ccccc1 (stereo not shown) [WC-118] | Imax (%) = 15 | 4 |  |
| CCOC(=O)C(=[N+]=[N-])C(Nc1ccccn1)c1ccc(C(F)(F)F)cc1 (stereo not shown) [WC-121] | Imax (%) ≤ 10 | 4.8 |  |
| [N-]=[N+]=C(C(=O)OC1CCCCC1)C(Nc1cnccn1)c1cccnc1 (stereo not shown) [WC-125] | Imax (%) = 20 | 1.5 |  |
| CCOC(=O)C(=[N+]=[N-])C(Nc1ccccn1)c1cccnc1 (stereo not shown) [WC-128] | Imax (%) = 18 | 3.5 |  |
| [N-]=[N+]=C(C(=O)OC1CCCCC1)C(Nc1ncccn1)c1ccncc1 (stereo not shown) [WC-130] | Imax (%) = 25 | 2 |  |
| [N-]=[N+]=C(C(=O)OC1CCCCC1)C(C=Cc1ccccc1)Nc1ncccn1 (stereo not shown) [WC-132] | Imax (%) = 15 | 5 |  |

More lines, main results first:

| Imax (%) (Syk-cSH2; [3]) | IC50 (Syk-cSH2; [4]) [µM] | SMILES | other results |
| --- | --- | --- | --- |
| Imax (%) = 12 | 4 | [N-]=[N+]=C(C(=O)OC1CCCCC1)C(Nc1ncccn1)c1ccc(O)cc1 (stereo not shown) [WC = 42] |  |
| Imax (%) = 10 | 3.8 | COc1ccc(C(Nc2ncccn2)C(=[N+]=[N-])C(=O)OC2CCCCC2)cc1 (stereo not shown) [WC-30] |  |
| Imax (%) = 10 | 5 | [N-]=[N+]=C(C(=O)OC1CCCCC1)C(Nc1ncccn1)c1ccc(F)cc1 (stereo not shown) [WC-32] |  |
| Imax (%) = 10 | 2.8 | CN(C)c1ccc(C(Nc2ncccn2)C(=[N+]=[N-])C(=O)OC2CCCCC2)cc1 (stereo not shown) [WC-34] |  |
| Imax (%) = 10 | 4.5 | CC(C)(C)OC(=O)C(=[N+]=[N-])C(Nc1ccccn1)c1ccc(Br)cc1 (stereo not shown) [WC-50] |  |
| Imax (%) ≤ 10 | 2 | Cc1ccc(C(Nc2ncccn2)C(=[N+]=[N-])C(=O)OC(C)(C)C)cc1 (stereo not shown) [WC-56] |  |
| Imax (%) ≤ 10 | 4 | COc1cc(C(Nc2ncccn2)C(=[N+]=[N-])C(=O)OC(C)(C)C)cc(OC)c1OC (stereo not shown) [WC-59] |  |
| Imax (%) ≤ 10 | 4.5 | [N-]=[N+]=C(C(=O)OC1CCCCC1)C(Nc1ncccn1)c1ccc(Br)cc1 (stereo not shown) [WC-68] |  |
| Imax (%) = 18 | 2 | Cc1ccc(C(Nc2ncccn2)C(=[N+]=[N-])C(=O)OC2CCCC2)cc1 (stereo not shown) [WC-100] |  |
| Imax (%) = 15 | 4 | Cc1ccc(C(Nc2ncccn2)C(=[N+]=[N-])C(=O)ON2CCC(C)CC2)cc1 (stereo not shown) [WC-105] |  |
| Imax (%) = 20 | 2 | Cc1ccc(C(Nc2ncccn2)C(=[N+]=[N-])C(=O)ON2CCOCC2)cc1 (stereo not shown) [WC-108] |  |
| Imax (%) = 25 | 2 | Cc1ccc(C(Nc2ncccn2)C(=[N+]=[N-])C(=O)ON2CCN(C)CC2)cc1 (stereo not shown) [WC-109] |  |
| Imax (%) = 20 | 2 | CCOC(=O)C(=[N+]=[N-])C(Nc1ncccn1)c1ccc(O)cc1 (stereo not shown) [WC-115] |  |
| Imax (%) = 20 | 4 | [N-]=[N+]=C(C(=O)OC1CCCC1)C(Nc1ncccn1)c1ccc(C(F)(F)F)cc1 (stereo not shown) [WC-120] |  |
